Reference: patent publication US20240024488A1, “COMPOUNDS AND USES THEREOF” (Foghorn Therapeutics Inc., priority 2020, published 2024)

What was measured:
[1] = molecular target: T1, HiBit-BRG1 fusion protein (Homo sapiens, UniProt P51532); assay: HiBiT-BRG1 cell-based degradation assay (Nano-Glo HiBiT Lytic Detection, 24 h); settings: HeLa cell line expressing HiBit-BRG1 and LgBit; for Dmax: read-out: BRG1 HiBit Degradation Maximum (%); for DC50: read-out: BRMG1 HiBit Degradation IC50
T1 construct: expressed in transfected cells
T1 sequence (P51532 whole entry, the tested form may be a part): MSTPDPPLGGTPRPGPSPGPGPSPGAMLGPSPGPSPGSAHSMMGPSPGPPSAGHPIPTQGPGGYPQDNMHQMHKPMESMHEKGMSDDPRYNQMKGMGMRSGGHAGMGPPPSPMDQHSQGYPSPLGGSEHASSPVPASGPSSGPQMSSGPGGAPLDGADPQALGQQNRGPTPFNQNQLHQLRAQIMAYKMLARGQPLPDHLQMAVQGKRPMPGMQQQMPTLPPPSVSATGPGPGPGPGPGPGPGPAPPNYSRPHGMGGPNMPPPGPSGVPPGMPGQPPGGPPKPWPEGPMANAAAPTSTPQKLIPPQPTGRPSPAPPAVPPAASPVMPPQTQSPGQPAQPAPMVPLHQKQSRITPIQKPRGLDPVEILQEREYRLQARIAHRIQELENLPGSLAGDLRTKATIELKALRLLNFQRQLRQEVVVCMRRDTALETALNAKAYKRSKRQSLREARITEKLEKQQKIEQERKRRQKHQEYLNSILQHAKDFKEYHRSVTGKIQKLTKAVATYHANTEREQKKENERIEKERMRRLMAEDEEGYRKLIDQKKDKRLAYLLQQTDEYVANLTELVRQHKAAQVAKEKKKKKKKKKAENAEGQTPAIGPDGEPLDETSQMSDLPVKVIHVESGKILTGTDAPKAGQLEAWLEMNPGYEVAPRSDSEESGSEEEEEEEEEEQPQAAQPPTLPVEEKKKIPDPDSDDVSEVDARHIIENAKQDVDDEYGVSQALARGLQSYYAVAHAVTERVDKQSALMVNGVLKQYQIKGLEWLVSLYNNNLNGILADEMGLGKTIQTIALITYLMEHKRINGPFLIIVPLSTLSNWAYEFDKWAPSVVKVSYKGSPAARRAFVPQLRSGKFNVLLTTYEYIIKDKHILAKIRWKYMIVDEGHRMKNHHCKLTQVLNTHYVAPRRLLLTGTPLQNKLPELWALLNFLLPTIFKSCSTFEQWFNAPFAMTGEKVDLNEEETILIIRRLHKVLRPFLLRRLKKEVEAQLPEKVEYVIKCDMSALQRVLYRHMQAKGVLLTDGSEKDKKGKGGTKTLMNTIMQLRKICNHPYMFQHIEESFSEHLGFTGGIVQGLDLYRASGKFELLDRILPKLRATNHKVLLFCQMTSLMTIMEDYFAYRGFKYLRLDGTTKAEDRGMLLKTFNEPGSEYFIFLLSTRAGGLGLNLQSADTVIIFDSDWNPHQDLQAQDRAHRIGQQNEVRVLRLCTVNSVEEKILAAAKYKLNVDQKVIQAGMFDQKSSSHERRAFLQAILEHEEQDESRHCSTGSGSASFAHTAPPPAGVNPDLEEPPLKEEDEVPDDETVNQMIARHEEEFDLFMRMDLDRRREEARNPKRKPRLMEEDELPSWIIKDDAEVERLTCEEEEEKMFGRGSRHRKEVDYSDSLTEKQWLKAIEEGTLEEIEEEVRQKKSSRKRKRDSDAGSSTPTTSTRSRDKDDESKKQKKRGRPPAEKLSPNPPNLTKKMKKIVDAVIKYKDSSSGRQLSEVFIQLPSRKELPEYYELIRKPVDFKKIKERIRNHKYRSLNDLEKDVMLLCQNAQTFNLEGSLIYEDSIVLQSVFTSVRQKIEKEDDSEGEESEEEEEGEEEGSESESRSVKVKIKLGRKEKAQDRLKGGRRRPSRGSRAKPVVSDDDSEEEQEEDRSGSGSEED
Method: Procedure: A stable HeLa cell line expressing HiBiT-BRM was generated. On day 0, 5000 cells were seeded in 40 μL of media into each well of 384-well cell culture plates. […] Subsequently plates were incubated for 24 h in a standard tissue culture incubator and equilibrated at room temperature for 15 minutes. Nano-Glo HiBiT Lytic Detection System (Promega N3050) reagent was freshly prepared and 20 ul was added to each well. Upon addition of this LgBit-containing reagent, the HiBiT and LgBiT proteins associate to form the luminescent NanoBiT luciferase. The plates were shaken for 10 minutes at room temperature and the bioluminescence read using an EnVision plate reader (PerkinElmer).
For measurement of BRG1 degradation, a stable HeLa cell line expressing HiBit-BRG1 and LgBit was generated. The same protocol as above was then followed.
(§1) The degradation % was calculated using the following formula: % degradation=100%−100%×(LumSample−LumLC)/(LumHC−LumLC). DMSO treated cells are employed as High Control (HC) and 2 μM of a known BRM/BRG1 degrader standard treated cells are employed as Low Control (LC).

HiBit-BRM fusion protein = molecular target: T2, HiBit-BRM fusion protein (Homo sapiens, UniProt P51531); assay: HiBiT-BRM cell-based degradation assay (Nano-Glo HiBiT Lytic Detection, 24 h); settings: HeLa cell line expressing HiBiT-BRM; for DC50: read-out: BRM HiBit Degradation IC50
T2 construct: expressed in transfected cells
T2 sequence (P51531 whole entry, the tested form may be a part): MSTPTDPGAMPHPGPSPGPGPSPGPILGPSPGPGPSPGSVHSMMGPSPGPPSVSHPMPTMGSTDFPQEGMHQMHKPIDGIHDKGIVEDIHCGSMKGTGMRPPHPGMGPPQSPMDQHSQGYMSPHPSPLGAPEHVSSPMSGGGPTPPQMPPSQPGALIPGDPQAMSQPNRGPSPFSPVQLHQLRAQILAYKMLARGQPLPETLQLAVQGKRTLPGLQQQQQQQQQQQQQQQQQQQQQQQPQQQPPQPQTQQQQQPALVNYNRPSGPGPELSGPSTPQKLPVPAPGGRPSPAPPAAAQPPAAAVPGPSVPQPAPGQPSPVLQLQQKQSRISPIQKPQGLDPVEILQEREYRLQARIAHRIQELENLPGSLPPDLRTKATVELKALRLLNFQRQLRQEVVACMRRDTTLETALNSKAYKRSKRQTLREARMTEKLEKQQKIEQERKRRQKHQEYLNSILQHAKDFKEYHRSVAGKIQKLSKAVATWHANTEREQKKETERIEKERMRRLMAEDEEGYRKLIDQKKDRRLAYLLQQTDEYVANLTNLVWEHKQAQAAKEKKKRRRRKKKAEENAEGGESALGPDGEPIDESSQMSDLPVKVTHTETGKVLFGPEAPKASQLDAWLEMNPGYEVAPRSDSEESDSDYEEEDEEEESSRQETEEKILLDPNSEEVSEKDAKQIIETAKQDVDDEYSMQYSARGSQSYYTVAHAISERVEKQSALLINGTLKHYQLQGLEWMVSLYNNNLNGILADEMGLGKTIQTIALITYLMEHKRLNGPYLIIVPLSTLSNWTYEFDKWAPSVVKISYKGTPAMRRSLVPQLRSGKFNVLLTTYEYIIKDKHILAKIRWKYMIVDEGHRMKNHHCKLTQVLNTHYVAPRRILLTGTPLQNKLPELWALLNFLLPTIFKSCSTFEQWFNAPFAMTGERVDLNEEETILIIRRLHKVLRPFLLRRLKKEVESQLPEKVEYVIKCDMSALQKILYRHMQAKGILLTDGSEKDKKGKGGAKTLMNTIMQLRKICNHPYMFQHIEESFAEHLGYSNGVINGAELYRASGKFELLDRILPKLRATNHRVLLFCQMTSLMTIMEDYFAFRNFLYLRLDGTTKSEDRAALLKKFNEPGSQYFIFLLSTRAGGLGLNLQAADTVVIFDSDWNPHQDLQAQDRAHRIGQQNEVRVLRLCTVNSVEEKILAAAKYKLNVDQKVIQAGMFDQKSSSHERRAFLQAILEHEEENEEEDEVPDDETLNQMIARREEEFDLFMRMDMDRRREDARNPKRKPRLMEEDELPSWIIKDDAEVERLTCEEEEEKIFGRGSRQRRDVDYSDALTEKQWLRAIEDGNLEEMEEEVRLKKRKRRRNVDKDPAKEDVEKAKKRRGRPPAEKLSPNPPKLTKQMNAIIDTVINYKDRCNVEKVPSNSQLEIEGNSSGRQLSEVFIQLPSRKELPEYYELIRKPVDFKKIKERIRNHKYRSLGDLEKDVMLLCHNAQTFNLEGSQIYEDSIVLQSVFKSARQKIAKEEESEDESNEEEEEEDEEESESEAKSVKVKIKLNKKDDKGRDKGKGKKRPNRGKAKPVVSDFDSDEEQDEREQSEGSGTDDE
Method: Procedure: A stable HeLa cell line expressing HiBiT-BRM was generated. On day 0, 5000 cells were seeded in 40 μL of media into each well of 384-well cell culture plates. On day 1, cells were treated with 120 nL DMSO or 120 nL of 3-fold serially DMSO-diluted compounds (10 points in duplicate with 30 μM as final top dose). Subsequently plates were incubated for 24 h in a standard tissue culture incubator and equilibrated at room temperature for 15 minutes. Nano-Glo HiBiT Lytic Detection System (Promega N3050) reagent was freshly prepared and 20 ul was added to each well. Upon addition of this LgBit-containing reagent, the HiBiT and LgBiT proteins associate to form the luminescent NanoBiT luciferase. The plates were shaken for 10 minutes at room temperature and the bioluminescence read using an EnVision plate reader (PerkinElmer).
as §1

| Dmax [1] [%] | DC50 (HiBit-BRM fusion protein) [µM] | DC50 [1] [µM] | SMILES | BRM HiBit Degradation Maximum (%) (HiBit-BRM fusion protein) |
| --- | --- | --- | --- | --- |
| > 75 | > 0.1 | > 0.1 | Cc1ncsc1-c1ccc([C@H](C)NC(=O)[C@@H]2C[C@@H](O)CN2C(=O)[C@@H](c2cc(OCCN3CCN(CCN4CC(c5cc6cc(-c7ccccc7O)nnc6[nH]5)C4)CC3)no2)C(C)C)cc1 (racemic) [Compound 58, (2S,4R)-4-hydroxy-1-((R)-2-(3-(2-(4-(2-(3-(3-(2-hydroxyphenyl)-7H-pyrrolo[2,3-c]pyridazin-6-yl)azetidin-1-yl)ethyl)piperazin-1-yl)ethoxy)isoxazol-5-yl)-3-methylbutanoyl)-N-((S)-1-(4-(4-methylthiazol-5-yl)phenyl)ethyl)pyrrolidine-2-carboxamide] | A (“A” indicates maximum degradation ≥ 75%) |
| < 50 | > 0.1 |  | Cc1ncsc1-c1ccc([C@H](C)NC(=O)[C@@H]2C[C@@H](O)CN2C(=O)[C@@H](c2cc(OCCN(C)CCN3CC(c4cc5cc(-c6ccccc6O)nnc5[nH]4)C3)no2)C(C)C)cc1 (racemic) [Compound 59, (2S,4R)-4-hydroxy-1-((R)-2-(3-(2-((2-(3-(3-(2-hydroxyphenyl)-7H-pyrrolo[2,3-c]pyridazin-6-yl)azetidin-1-yl)ethyl)(methyl)amino)ethoxy)isoxazol-5-yl)-3-methylbutanoyl)-N-((S)-1-(4-(4-methylthiazol-5-yl)phenyl)ethyl)pyrrolidine-2-carboxamide] | B (“B” indicates maximum degradation ≥ 50%) |
| < 50 |  |  | Cc1ncsc1-c1ccc(CNC(=O)[C@@H]2C[C@@H](O)CN2C(=O)[C@@H](NC(=O)CCCN2CC(c3cc4cc(-c5ccccc5O)nnc4[nH]3)C2)C(C)(C)C)cc1 (racemic) [Compound 60, (2S,4R)-4-hydroxy-1-((S)-2-(4-(3-(3-(2-hydroxyphenyl)-7H-pyrrolo[2,3-c]pyridazin-6-yl)azetidin-1-yl)butanamido)-3,3-dimethylbutanoyl)-N-(4-(4-methylthiazol-5-yl)benzyl)pyrrolidine-2-carboxamide] | C (“C” indicates maximum degradation < 50%) |
| < 50 | > 0.1 |  | Cc1ncsc1-c1ccc([C@H](C)NC(=O)[C@@H]2C[C@@H](O)CN2C(=O)[C@@H](c2cc(OCCN(C)CCC(=O)N3CC(c4cc5cc(-c6ccccc6O)nnc5[nH]4)C3)no2)C(C)C)cc1 (racemic) [Compound 64, (2S,4R)-4-hydroxy-1-((R)-2-(3-(2-((3-(3-(3-(2-hydroxyphenyl)-7H-pyrrolo[2,3-c]pyridazin-6-yl)azetidin-1-yl)-3-oxopropyl)(methyl)amino)ethoxy)isoxazol-5-yl)-3-methylbutanoyl)-N-((S)-1-(4-(4-methylthiazol-5-yl)phenyl)ethyl)pyrrolidine-2-carboxamide] | B (“B” indicates maximum degradation ≥ 50%) |
| < 50 | > 1 |  | Cc1ncsc1-c1ccc([C@H](C)NC(=O)[C@@H]2C[C@@H](O)CN2C(=O)[C@@H](c2cc(OCCNCCC(=O)N3CC(c4cc5cc(-c6ccccc6O)nnc5[nH]4)C3)no2)C(C)C)cc1 (racemic) [Compound 65, (2S,4R)-4-hydroxy-1-((R)-2-(3-(2-((3-(3-(3-(2-hydroxyphenyl)-7H-pyrrolo[2,3-c]pyridazin-6-yl)azetidin-1-yl)-3-oxopropyl)amino)ethoxy)isoxazol-5-yl)-3-methylbutanoyl)-N-((S)-1-(4-(4-methylthiazol-5-yl)phenyl)ethyl)pyrrolidine-2-carboxamide] | B (“B” indicates maximum degradation ≥ 50%) |

Second part, the compound before the results:

| SMILES | Dmax [1] [%] | DC50 (HiBit-BRM fusion protein) [µM] | DC50 [1] [µM] | BRM HiBit Degradation Maximum (%) (HiBit-BRM fusion protein) |
| --- | --- | --- | --- | --- |
| Cc1ncsc1-c1ccc(CNC(=O)[C@@H]2C[C@@H](O)CN2C(=O)[C@@H](NC(=O)CCCCCNCCC(=O)N2CC(c3cc4cc(-c5ccccc5O)nnc4[nH]3)C2)C(C)(C)C)cc1 (racemic) [Compound 55, (2S,4R)-4-hydroxy-1-((S)-2-(6-((3-(3-(3-(2-hydroxyphenyl)-7H-pyrrolo[2,3-c]pyridazin-6-yl)azetidin-1-yl)-3-oxopropyl)amino)hexanamido)-3,3-dimethylbutanoyl)-N-(4-(4-methylthiazol-5-yl)benzyl)pyrrolidine-2-carboxamide] | < 50 |  |  | C (“C” indicates maximum degradation < 50%) |
| Cc1ncsc1-c1ccc(CNC(=O)[C@@H]2C[C@@H](O)CN2C(=O)[C@@H](NC(=O)CCCCCCCNCCC(=O)N2CC(c3c[nH]c4nnc(-c5ccccc5O)cc34)C2)C(C)(C)C)cc1 (racemic) [Compound 56, (2S,4R)-4-hydroxy-1-((S)-2-(8-((3-(3-(3-(2-hydroxyphenyl)-7H-pyrrolo[2,3-c]pyridazin-5-yl)azetidin-1-yl)-3-oxopropyl)amino)octanamido)-3,3-dimethylbutanoyl)-N-(4-(4-methylthiazol-5-yl)benzyl)pyrrolidine-2-carboxamide] | < 50 | > 1 |  | B (“B” indicates maximum degradation ≥ 50%) |
| Cc1ncsc1-c1ccc(CNC(=O)[C@@H]2C[C@@H](O)CN2C(=O)[C@@H](NC(=O)CCCCCNCCC(=O)N2CC(c3c[nH]c4nnc(-c5ccccc5O)cc34)C2)C(C)(C)C)cc1 (racemic) [Compound 57, (2S,4R)-4-hydroxy-1-((S)-2-(6-((3-(3-(3-(2-hydroxyphenyl)-7H-pyrrolo[2,3-c]pyridazin-5-yl)azetidin-1-yl)-3-oxopropyl)amino)hexanamido)-3,3-dimethylbutanoyl)-N-(4-(4-methylthiazol-5-yl)benzyl)pyrrolidine-2-carboxamide] | < 50 |  |  | C (“C” indicates maximum degradation < 50%) |
| Cc1ncsc1-c1ccc(CNC(=O)[C@@H]2C[C@@H](O)CN2C(=O)[C@@H](NC(=O)CN2CC(c3cc4cc(-c5ccccc5O)nnc4[nH]3)C2)C(C)(C)C)cc1 (racemic) [Compound 61, (2S,4R)-4-hydroxy-1-((S)-2-(2-(3-(3-(2-hydroxyphenyl)-7H-pyrrolo[2,3-c]pyridazin-6-yl)azetidin-1-yl)acetamido)-3,3-dimethylbutanoyl)-N-(4-(4-methylthiazol-5-yl)benzyl)pyrrolidine-2-carboxamide] | > 75 | > 1 | > 1 | A (“A” indicates maximum degradation ≥ 75%) |
| Cc1ncsc1-c1ccc(CNC(=O)[C@@H]2C[C@@H](O)CN2C(=O)[C@@H](NC(=O)C2(F)CC2)C(C)(C)C)c(OCCN2CC(c3cc4cc(-c5ccccc5O)nnc4[nH]3)C2)c1 (racemic) [Compound 63, (2S,4R)-1-((S)-2-(1-fluorocyclopropane-1-carboxamido)-3,3-dimethylbutanoyl)-4-hydroxy-N-(2-(2-(3-(3-(2-hydroxyphenyl)-7H-pyrrolo[2,3-c]pyridazin-6-yl)azetidin-1-yl)ethoxy)-4-(4-methylthiazol-5-yl)benzyl)pyrrolidine-2-carboxamide] | < 50 |  |  | C (“C” indicates maximum degradation < 50%) |
| Cc1ncsc1-c1ccc(CNC(=O)[C@@H]2C[C@@H](O)CN2C(=O)[C@@H](NC(=O)CCCCCCCNCCC(=O)N2CC(c3cc4cc(-c5ccccc5O)nnc4[nH]3)C2)C(C)(C)C)cc1 (racemic) [Compound 66, (2S,4R)-4-hydroxy-1-((S)-2-(8-((3-(3-(3-(2-hydroxyphenyl)-7H-pyrrolo[2,3-c]pyridazin-6-yl)azetidin-1-yl)-3-oxopropyl)amino)octanamido)-3,3-dimethylbutanoyl)-N-(4-(4-methylthiazol-5-yl)benzyl)pyrrolidine-2-carboxamide] | < 50 |  |  | C (“C” indicates maximum degradation < 50%) |
